Results on one compound are retold here after patent US20210161855A1, “5-LIPOXYGENASE ANTAGONISTS” (INSTITUTO DE MEDICINA MOLECULAR JOÃO LOBO ANTUNES, priority 2017, published 2021).

Converted amounts (≈) assume the structure as drawn. Read-outs that look alike come from different tables or passages of the source. Bounds are passed on as bounds.

Data set [1] concerns the target EP4 (Homo sapiens, UniProt P35408). Put plainly: Prostanoid EP4 receptor activation, functional assay. The conditions noted are these: 150 μM. In kind it is cell-based.
For data set [2], the system named is Staphylococcus aureus ATCC 25923. Put plainly: MIC/MBC assay, S. aureus. It is filed as cell-based. As for the experimental part:
Escherichia coli K12 and Staphylococcus aureus ATCC 25923 were grown overnight at 37° C. and re-inoculated in 24-well plates containing 2.5 mL of Luria Bertani medium (LB) to give an optical density of ˜0.01 at 600 nm. Stock solutions of β-lapachone, and lapachol were prepared in DMSO (1% final concentration) and added to the cell suspensions to obtain final concentrations between 5-210 μM. Wells containing a growth control (cell suspensions with 1% DMSO) and a sterile media control were also prepared. The plates were incubated for 18 h at 37° C. and 90 r.p.m. The concentration of compound in the first well in the series that presented no sign of visible growth was reported as the MIC. The OD600 of the cultures was also measured. All the MIC wells were serially diluted in phosphate buffer saline (PBS) and plated onto LB agar plates.

Data set [3] concerns the target T1, 5-LO (Homo sapiens, UniProt P09917).
T1 sequence (P09917 1-674): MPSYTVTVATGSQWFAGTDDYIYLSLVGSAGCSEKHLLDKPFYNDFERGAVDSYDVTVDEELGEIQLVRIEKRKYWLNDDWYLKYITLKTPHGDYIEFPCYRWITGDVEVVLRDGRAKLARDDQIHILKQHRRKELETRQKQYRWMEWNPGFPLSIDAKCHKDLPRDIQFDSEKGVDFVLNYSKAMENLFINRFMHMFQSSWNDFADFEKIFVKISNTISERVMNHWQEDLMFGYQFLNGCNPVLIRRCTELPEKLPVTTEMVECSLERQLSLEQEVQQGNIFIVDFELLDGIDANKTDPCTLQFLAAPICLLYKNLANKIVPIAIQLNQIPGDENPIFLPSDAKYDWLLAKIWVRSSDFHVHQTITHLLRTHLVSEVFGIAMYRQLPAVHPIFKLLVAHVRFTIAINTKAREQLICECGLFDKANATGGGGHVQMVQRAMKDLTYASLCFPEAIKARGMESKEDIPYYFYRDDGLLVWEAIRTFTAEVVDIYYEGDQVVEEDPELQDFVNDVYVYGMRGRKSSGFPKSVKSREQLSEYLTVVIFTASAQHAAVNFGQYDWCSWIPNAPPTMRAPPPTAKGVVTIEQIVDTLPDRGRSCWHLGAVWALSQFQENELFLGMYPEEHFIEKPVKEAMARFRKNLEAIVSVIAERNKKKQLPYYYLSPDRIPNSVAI
Put plainly: Cell-free activity assay of human recombinant 5-LO. It is filed as biochemical. Details: made in house; host or cells: E. coli (BL21), plasmid pT3-5-LO. Here is the method:
E. coli(BL21) was transformed with pT3-5-LO plasmid, and recombinant 5-LO protein was expressed at 30° C. as described.^34 Cells were lysed in 50 mM triethanolamine/HCl pH 8.0, 5 mM EDTA, 1 mM phenylmethanesulphonyl fluoride, soybean trypsin inhibitor (60 μg/mL), and lysozyme (1 mg/mL), homogenized by sonication (3×15 s), and centrifuged at 40,000×g for 20 min at 4° C. The 40,000×g supernatant (S40) was applied to an ATP-agarose column to partially purify 5-LO as described.^70 Aliquots of semi-purified 5-LO (0.5 μg) were diluted with 1 mL ice-cold PBS containing 1 mM EDTA. Samples were pre-incubated with the test compound or vehicle (0.1% DMSO) with or without Triton X-100 and/or 1 mM DTT, as indicated. After 10 min at 4° C., samples were pre-warmed for 30 s at 37° C., and 2 mM CaCl2 plus the indicated concentrations of arachidonic acid (AA) were added to start the formation of 5-LO products. After 10 min, the reaction was stopped by addition of one volume of ice-cold methanol, and the formed 5-LO products were analyzed by RP-HPLC as described.^71 5-LO products include the all-trans isomers of LTB4 (tr-LTB4 isomers) as well as 5(S)-hydroperoxy-6-trans-8,11,14-cis-eicosatetraenoic acid (5-HPETE) and its corresponding alcohol 5(S)-hydroxy-6-trans-8,11,14-cis-eicosatetraenoic acid (5-HETE). For phosphatidylcholine competition assays (3 or 30 μg/ml PC) samples were pre-incubated on ice with β-lapachone with or without 1 mM DDT or vehicle (0.1% DMSO) for 10 minutes. After addition of 2 mM CaCl2) and 20 μM AA the incubation was continued for 10 minutes at 37° C. and after that stopped with methanol.
Data are expressed as mean±S.E.M. IC50 values were calculated from averaged measurements at 6 different concentrations of the compound by nonlinear regression using GraphPad Prism software (San Diego, Calif.) one site binding competition. Statistical evaluation of the data was performed by one-way ANOVA followed by a Tukey-Kramer post-hoc test for multiple comparisons respectively. A p value<0.05 (*) was considered significant.

For data set [4], the system named is HL-60. To be noted: cited from earlier work.
Data set [5] in a line: Dynamic light scattering, colloidal aggregation. In kind it is physicochemical. To be noted: relevant concentrations. As for the experimental part:
Dynamic light scattering (Zetasizer Nano S, Malvern, UK) was used to determine compound colloidal aggregation potential and kinetic solubility. The particle sizes were measured at 25° C. […] Colloidal aggregation was measured through sequential dilutions. Solubility was assessed at 25 μM after 0 and 30 minutes.

Data set [6] concerns HEL. Put plainly: Cell viability, AML model HEL (FIG. 9a). It is filed as cell-based. To be noted: Homo sapiens, n=3.
Data set [7] concerns HL-60 cells. Put plainly: HL-60 cell viability with and without DMSO differentiation (Alamar Blue). In kind it is cell-based. The conditions noted are these: Homo sapiens, 48 hours, n=1. Here is the method:
Cells were fixed with […] BD fix buffer while vortexing. […] After the required incubation time, cells were washed and incubated for another hour with goat anti-rabbit Alexa fluor 488 antibody. Cells are then washed and resuspended in PBS and acquired by LSRFortessa™ flow cytometer (BD Biosciences, USA) with a 488 nm laser, a 505 nm long-pass filter and a 530/30 nm band-pass filter (for FITC detection). Data was analyzed using the FlowJo software. […] Cells were treated with varying concentration of β-lapachone for a time period of 48 hours. Cell death was analyzed using standard Alamar Blue assay. Data is represented after being normalized to the vehicle control.
(Resazurin is reduced to fluorescent resorufin, in cell work by metabolically active cells.)

Chain of EP4 (P35408 whole entry): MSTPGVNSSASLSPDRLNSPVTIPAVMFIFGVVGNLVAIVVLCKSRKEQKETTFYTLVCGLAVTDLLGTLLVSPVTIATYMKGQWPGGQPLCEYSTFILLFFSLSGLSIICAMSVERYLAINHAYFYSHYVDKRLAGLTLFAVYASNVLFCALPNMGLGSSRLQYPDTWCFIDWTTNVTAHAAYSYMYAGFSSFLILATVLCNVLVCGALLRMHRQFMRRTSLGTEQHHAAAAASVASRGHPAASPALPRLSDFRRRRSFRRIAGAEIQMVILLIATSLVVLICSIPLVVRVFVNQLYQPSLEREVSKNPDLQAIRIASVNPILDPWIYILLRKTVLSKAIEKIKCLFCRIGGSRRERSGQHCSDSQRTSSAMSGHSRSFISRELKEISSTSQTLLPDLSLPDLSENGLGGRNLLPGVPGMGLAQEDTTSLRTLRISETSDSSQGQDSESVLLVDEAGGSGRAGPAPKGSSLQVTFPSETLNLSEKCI

The compound `CC1(C)CCC2=C(O1)c1ccccc1C(=O)C2=O` [Compound 1, 3,4-dihydro-2,2-dimethyl-2H-naphtho[1,2-b]pyran-5,6-dione] showed an EP4 activation in data set [1] of 53%. Also, the MIC in data set [2] (ATCC25923, 18 h, read-out: Minimum inhibitory concentration) amounted to 60 µM (≈ 14.5 µg/mL). Besides, the MBC in data set [2] (ATCC25923, read-out: Minimum bactericidal concentration) is greater than 200 µM. Further, the IC50 is 100 nM in data set [3] (3 μg/mL phosphatidylcholine, n=3, read-out: IC50 (3 μg/mL, PC), competition assay with phosphatidylcholine); 1000 nM in data set [3] (30 μg/mL phosphatidylcholine, n=3, read-out: IC50 (30 μg/mL, PC), competition assay with phosphatidylcholine); 90 nM in data set [3] (1 mM DTT, 0.01% Triton X100, n=3, read-out: IC50 (with Triton X100), inhibition of 5-LO); 120 nM in data set [3] (1 mM DTT, no Triton X100, n=3, read-out: IC50 (without Triton X100), inhibition of 5-LO); 240 nM in data set [3] (1 mM dithiothreitol (DTT), n=3, read-out: IC50 (with DTT), inhibition of 5-LO in a cell-free assay); greater than 30000 nM in data set [3] (absence of DTT, n=3, read-out: IC50 (without DTT), inhibition of 5-LO in a cell-free assay). The IC50 in data set [6] came out at 900 nM; in data set [7] (DMSO-stimulated HL-60 cells overexpressing 5-LO, read-out: IC50 (differentiated), HL-60), 180 nM; in data set [7] (control HL-60 cells, read-out: IC50 (control), HL-60), 390 nM. Further, the “Effect of arachidonic acid concentration on potency” value in data set [3] (arachidonic acid 2.5-40 μM) is “only to minor alterations of the potency”. Moreover, the “5-LO modulation in absence of dithiothreitol” value in data set [3] (cell-free, no DTT, up to 30 μM) is recorded as “negligible 5-LO modulation”. Further, the “5-LO activity after wash-out” value in data set [3] (wash-out of compound) is on record as “could be reinstated upon wash-out”. For the same compound, the pGI50 z-score in data set [4] (NCI-60, z-transformed pGI50) is 2.38. For the same compound, the GI50 in data set [4] (NCI-60) was 62.4 nM. Moreover, in data set [5], the Colloidal aggregation entry was “no colloidal aggregation”.

The term GI50 denotes the concentration that inhibits growth by half.
